This is an account of results in patent US20090029992A1, “SUBSTITUTED PYRAZOLE COMPOUNDS” (priority 2007, published 2009).

For assay [1], the target named is T1, N-terminal GST-tagged recombinant human Flt3, residues 564-end (Homo sapiens, UniProt P36888).
T1 construct: recombinant human Flt3, residues 564-end; GST (N); purchased Upstate USA Inc, 706 Forest Street, Charlottesville, Va
T1 sequence (P36888 564-993 limits assumed): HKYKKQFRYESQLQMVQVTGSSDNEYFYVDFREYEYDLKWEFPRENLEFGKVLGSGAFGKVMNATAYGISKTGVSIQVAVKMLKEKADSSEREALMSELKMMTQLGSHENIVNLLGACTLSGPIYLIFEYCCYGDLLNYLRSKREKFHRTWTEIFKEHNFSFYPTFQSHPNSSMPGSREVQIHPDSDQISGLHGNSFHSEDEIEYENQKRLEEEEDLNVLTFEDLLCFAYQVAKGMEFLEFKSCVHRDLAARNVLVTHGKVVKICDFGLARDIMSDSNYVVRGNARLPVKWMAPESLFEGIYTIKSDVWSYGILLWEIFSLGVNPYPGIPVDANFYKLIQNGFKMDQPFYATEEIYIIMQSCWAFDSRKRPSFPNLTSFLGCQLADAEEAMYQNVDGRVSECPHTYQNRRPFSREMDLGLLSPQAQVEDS
Nature of the assay: Flt3 kinase inhibition assay (33P-ATP filter assay). The format is biochemical. Conditions: 40 minutes at room temperature. The procedure, abridged:
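Serial compound dilutions incubated 40 min at room temperature with 5-10 mU Flt3 kinase, 50 μM peptide substrate and [γ-33P]ATP/10 mM magnesium acetate, pH 7.0. Phosphoric acid stop, filter capture and scintillation counting; activity compared with uninhibited reactions.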

Assay [2] concerns the target T2, N-terminal His-tagged human Src (Homo sapiens, UniProt P12931).
T2 construct: His (N); purchased Upstate USA Inc, 706 Forest Street, Charlottesville, Va
Nature of the assay: Src kinase inhibition assay (33P-ATP filter assay). The class given is biochemical.

[3] abbreviates: group with IC50 greater than 100 nM.

T2 sequence (P12931 whole entry): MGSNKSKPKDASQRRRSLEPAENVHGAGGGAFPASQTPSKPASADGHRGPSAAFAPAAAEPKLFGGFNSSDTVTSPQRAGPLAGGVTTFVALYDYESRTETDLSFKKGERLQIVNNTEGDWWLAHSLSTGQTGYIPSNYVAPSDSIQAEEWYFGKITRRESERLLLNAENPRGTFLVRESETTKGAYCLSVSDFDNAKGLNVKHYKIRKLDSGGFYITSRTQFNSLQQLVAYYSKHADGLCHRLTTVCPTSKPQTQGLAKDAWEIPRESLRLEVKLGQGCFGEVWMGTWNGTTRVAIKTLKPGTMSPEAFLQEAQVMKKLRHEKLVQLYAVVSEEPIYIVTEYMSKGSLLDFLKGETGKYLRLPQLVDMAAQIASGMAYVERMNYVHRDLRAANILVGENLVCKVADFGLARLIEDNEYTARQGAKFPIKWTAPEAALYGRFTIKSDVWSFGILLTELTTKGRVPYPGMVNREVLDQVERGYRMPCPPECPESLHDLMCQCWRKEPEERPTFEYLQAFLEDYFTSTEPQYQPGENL

The IC50 is the midpoint of a concentration-inhibition curve. For the compound `CCc1ccccc1-c1nc(Nc2cc(C)[nH]n2)cc(NC2CCOCC2)n1` [Example 174, 2-(2-ethylphenyl)-N^4-(5-methyl-1H-pyrazol-3-yl)-N^6-(tetrahydro-2H-pyran-4-yl)pyrimidine-4,6-diamine], the figures for the concentration for half-maximal inhibition (IC50) in assay [1] and in assay [2] (setting [3]) were no more than 100 nM and no more than 1000 nM, respectively.

Consider `Cc1cc(Nc2cc(NCCN3CCOCC3)nc(-c3cc4ccccc4n3C)n2)n[nH]1` [Compound 5, 2-(1-methyl-1H-indol-2-yl)-N^4-(5-methyl-1H-pyrazol-3-yl)-N^6-(2-morpholinoethyl)pyrimidine-4,6-diamine], for which the concentration for half-maximal inhibition (IC50) in assay [1] and in assay [2] (40 minutes at room temperature) was no more than 100 nM each time.

Take `Cc1cc(Nc2cc(N3CCN(C)CC3)nc(-c3ccc(F)c(F)c3)n2)n[nH]1` [Example 168, 2-(3,4-difluorophenyl)-N-(5-methyl-1H-pyrazol-3-yl)-6-(4-methylpiperazin-1-yl)pyrimidin-4-amine]: the IC50 in assay [1] and in assay [2] (40 minutes at room temperature) was no more than 100 nM in each case.

Consider `Cc1cc(Nc2cc(N3CCC(O)CC3)nc(-c3cc4ccccc4n3C)n2)n[nH]1` [Compound 3, 1-(6-(5-methyl-1H-pyrazol-3-ylamino)-2-(1-methyl-1H-indol-2-yl)pyrimidin-4-yl)piperidin-4-ol], for which the half-inhibitory concentration (IC50) in assay [1] and in assay [2] (40 minutes at room temperature) was no more than 100 nM throughout.

Regarding `Cc1ccc(-c2nc(Nc3cc(C)[nH]n3)cc(N3CCN(C)CC3)n2)cc1` [Compound 38, N-(5-methyl-1H-pyrazol-3-yl)-6-(4-methylpiperazin-1-yl)-2-p-tolylpyrimidin-4-amine], the IC50 in assay [1] and in assay [2] (40 minutes at room temperature) was no more than 100 nM in each case.

For the compound `Cc1cc(Nc2cc(NC3CCOCC3)nc(-c3ccc(Cl)cc3)n2)n[nH]1` [Compound 22, 2-(4-chlorophenyl)-N^4-(5-methyl-1H-pyrazol-3-yl)-N^6-(tetrahydro-2H-pyran-4-yl)pyrimidine-4,6-diamine], the figures for the IC50 in assay [1] and in assay [2] (setting [3]) were no more than 100 nM and no more than 1000 nM, respectively.

As to `Cc1cc(Nc2cc(N3CCN(C)CC3)nc(-c3cccc(OCc4ccccc4)c3)n2)n[nH]1` [Example 188, 2-(3-(benzyloxy)phenyl)-N-(5-methyl-1H-pyrazol-3-yl)-6-(4-methylpiperazin-1-yl)pyrimidin-4-amine], the half-inhibitory concentration (IC50) in assay [1] is no more than 100 nM; in assay [2] (setting [3]), no more than 1000 nM.

In the case of `Cc1cc(Nc2cc(N3CCN(C)CC3)nc(-c3ccc(C(C)(C)C)cc3)n2)n[nH]1` [Compound 82, 2-(4-tert-butylphenyl)-N-(5-methyl-1H-pyrazol-3-yl)-6-(4-methylpiperazin-1-yl)pyrimidin-4-amine], the IC50 in assay [1] and in assay [2] (40 minutes at room temperature) was no more than 100 nM each time.

Regarding `Cc1cc(Nc2cc(NC3CCOCC3)nc(-c3ccccc3)n2)n[nH]1` [Compound 12, N^4-(tetrahydro-2H-pyran-4-yl)-N^6-(5-methyl-1H-pyrazol-3-yl)-2-phenylpyrimidine-4,6-diamine], the IC50 in assay [1] and in assay [2] (40 minutes at room temperature) was no more than 100 nM throughout.

On to `Cc1cc(Nc2cc(NCCN3CCOCC3)nc(-c3ccccc3)n2)n[nH]1` [Compound 11, N^4-(5-methyl-1H-pyrazol-3-yl)-N^6-(2-morpholinoethyl)-2-phenylpyrimidine-4,6-diamine], for which the results for the IC50 in assay [1] and in assay [2] (setting [3]) were no more than 100 nM and no more than 1000 nM, respectively.

Regarding `Cc1cc(Nc2cc(N3CCN(C)CC3)nc(-c3cc4cc(NS(=O)(=O)C5CC5)ccc4o3)n2)n[nH]1` [Example 155, N-(2-(4-(5-methyl-1H-pyrazol-3-ylamino)-6-(4-methylpiperazin-1-yl)pyrimidin-2-yl)benzofuran-5-yl)cyclopropanesulfonamide], the concentration for half-maximal inhibition (IC50) in assay [1] and in assay [2] (40 minutes at room temperature) was no more than 100 nM each time.

Consider `Cc1cc(C)cc(-c2nc(Nc3cc(C)[nH]n3)cc(N3CCN(C)CC3)n2)c1` [Example 169, 2-(3,5-dimethylphenyl)-N-(5-methyl-1H-pyrazol-3-yl)-6-(4-methylpiperazin-1-yl)pyrimidin-4-amine], for which the 50% inhibitory concentration (IC50) was no more than 100 nM in assay [1] and no more than 1000 nM in assay [2] (setting [3]).

With `Cc1cccc(-c2nc(Nc3cc(C)[nH]n3)cc(N(C)CCN(C)C)n2)c1` [Compound 52, N^4-(2-(dimethylamino)ethyl)-N^4-methyl-N^6-(5-methyl-1H-pyrazol-3-yl)-2-m-tolylpyrimidine-4,6-diamine], the IC50 in assay [1] was no more than 100 nM; in assay [2] (setting [3]) it was no more than 1000 nM.

Regarding `Cc1cc(Nc2cc(N3CCN(C)CC3)nc(-c3cccc4ccoc34)n2)n[nH]1` [Example 203, 2-(benzofuran-7-yl)-N-(5-methyl-1H-pyrazol-3-yl)-6-(4-methylpiperazin-1-yl)pyrimidin-4-amine], the IC50 in assay [1] and in assay [2] (40 minutes at room temperature) was no more than 100 nM throughout.

For `Cc1cc(Nc2cc(N3CCN(C)CC3)nc(-c3ccc4ccccc4c3)n2)n[nH]1` [Example 135, N-(5-methyl-1H-pyrazol-3-yl)-6-(4-methylpiperazin-1-yl)-2-(naphthalen-2-yl)pyrimidin-4-amine], the IC50 in assay [1] and in assay [2] (40 minutes at room temperature) was no more than 100 nM each time.

Turning to `Cc1cc(Nc2cc(NC3CCOCC3)nc(-c3cc4ccccc4n3C)n2)n[nH]1` [Compound 7, N^4-(tetrahydro-2H-pyran-4-yl)-2-(1-methyl-1H-indol-2-yl)-N^6-(5-methyl-1H-pyrazol-3-yl)pyrimidine-4,6-diamine], the IC50 is no more than 100 nM in assay [1] and no more than 1000 nM in assay [2] (setting [3]).

For the compound `COCCN(C)c1cc(Nc2cc(C)[nH]n2)nc(-c2cc(F)ccc2F)n1` [Example 184, 2-(2,5-difluorophenyl)-N^4-(2-methoxyethyl)-N^4-methyl-N^6-(5-methyl-1H-pyrazol-3-yl)pyrimidine-4,6-diamine], the IC50 in assay [1] is no more than 100 nM; in assay [2] (setting [3]), no more than 1000 nM.

Consider `Cc1cc(Nc2cc(N(C)CCN(C)C)nc(-c3ccccc3)n2)n[nH]1` [Compound 9, N^4-(2-(dimethylamino)ethyl)-N^4-methyl-N^6-(5-methyl-1H-pyrazol-3-yl)-2-phenylpyrimidine-4,6-diamine], for which the IC50 in assay [1] was no more than 100 nM; in assay [2] (setting [3]) it was no more than 1000 nM.

For `COc1cccc(-c2nc(Nc3cc(C)[nH]n3)cc(NC3CCOCC3)n2)c1` [Compound 29, 2-(3-methoxyphenyl)-N^4-(5-methyl-1H-pyrazol-3-yl)-N^6-(tetrahydro-2H-pyran-4-yl)pyrimidine-4,6-diamine], the half-inhibitory concentration (IC50) in assay [1] and in assay [2] (40 minutes at room temperature) was no more than 100 nM in each case.

For `Cc1cc(Nc2cc(N3CCN(C)CC3)nc(-c3cccnc3)n2)n[nH]1` [Compound 89, N-(5-methyl-1H-pyrazol-3-yl)-6-(4-methylpiperazin-1-yl)-2-(pyridin-3-yl)pyrimidin-4-amine], the IC50 in assay [1] and in assay [2] (40 minutes at room temperature) was no more than 100 nM each time.

Take `Cc1cc(Nc2cc(NC3CCOCC3)nc(-c3ccc(-c4ccccc4)cc3)n2)n[nH]1` [Example 158, 2-(biphenyl-4-yl)-N^4-(5-methyl-1H-pyrazol-3-yl)-N^6-(tetrahydro-2H-pyran-4-yl)pyrimidine-4,6-diamine]: the figures for the IC50 in assay [1] and in assay [2] (setting [3]) were no more than 100 nM and no more than 1000 nM, respectively.

For the compound `Cc1cc(Nc2cc(N3CCN(C)CC3)nc(-c3cc4ccccc4n3C)n2)n[nH]1` [Compound 2, 2-(1-methyl-1H-indol-2-yl)-N-(5-methyl-1H-pyrazol-3-yl)-6-(4-methylpiperazin-1-yl)pyrimidin-4-amine], the IC50 in assay [1] and in assay [2] (40 minutes at room temperature) was no more than 100 nM in each case.

Turning to `Cc1cc(Nc2cc(N3CCN(C)CC3)nc(-c3ccc([N+](=O)[O-])cc3)n2)n[nH]1` [Example 164, N-(5-methyl-1H-pyrazol-3-yl)-6-(4-methylpiperazin-1-yl)-2-(4-nitrophenyl)pyrimidin-4-amine], the half-maximal inhibitory concentration (IC50) in assay [1] and in assay [2] (40 minutes at room temperature) was no more than 100 nM in each case.

For the compound `Cc1cc(Nc2cc(NC3CCOCC3)nc(-c3cccc4ccoc34)n2)n[nH]1` [Example 204, 2-(benzofuran-7-yl)-N^4-(5-methyl-1H-pyrazol-3-yl)-N^6-(tetrahydro-2H-pyran-4-yl)pyrimidine-4,6-diamine], the IC50 is no more than 100 nM in assay [1] and no more than 1000 nM in assay [2] (setting [3]).

Turning to `COCCN(C)c1cc(Nc2cc(C)[nH]n2)nc(-c2ccc3c(c2)OCO3)n1` [Example 153, 2-(benzo[d][1,3]dioxol-5-yl)-N^4-(2-methoxyethyl)-N^4-methyl-N^6-(5-methyl-1H-pyrazol-3-yl)pyrimidine-4,6-diamine], the values for the IC50 in assay [1] and in assay [2] (setting [3]) were no more than 100 nM and no more than 1000 nM, respectively.

With `COCCN(C)c1cc(Nc2cc(C)[nH]n2)nc(-c2cccc(N(C)C)c2)n1` [Compound 119, 2-(3-(dimethylamino)phenyl)-N^4-(2-methoxyethyl)-N^4-methyl-N^6-(5-methyl-1H-pyrazol-3-yl)pyrimidine-4,6-diamine], the IC50 in assay [1] and in assay [2] (40 minutes at room temperature) was no more than 100 nM throughout.

Consider `Cc1cc(Nc2cc(N3CCN(C)CC3)nc(-c3cccc4ccccc34)n2)n[nH]1` [Example 134, N-(5-methyl-1H-pyrazol-3-yl)-6-(4-methylpiperazin-1-yl)-2-(naphthalen-1-yl)pyrimidin-4-amine], for which the 50% inhibitory concentration (IC50) in assay [1] and in assay [2] (40 minutes at room temperature) was no more than 100 nM throughout.

For the compound `COCCNc1cc(Nc2cc(C)[nH]n2)nc(-c2ccccc2)n1` [Compound 10, N^4-(2-methoxyethyl)-N^6-(5-methyl-1H-pyrazol-3-yl)-2-phenylpyrimidine-4,6-diamine], the 50% inhibitory concentration (IC50) in assay [1] is no more than 100 nM.
